These results are taken from patent publication US9238658B2, “Substituted piperidinyl-carboxamide derivatives useful as SCD 1 inhibitors” (Janssen Pharmaceutica NV, priority 2011, dated 2016).

Assay [1] deals with SCD1 (Homo sapiens (Human), UniProt O00767). Kind of assay: SCD1 13C-palmitic acid assay in A431 cells. The settings on record: read-out: A431 cells 13C-PA IC50. It counts as cell-based. As for the experimental part: Human epithelial carcinoma A431 cells were seeded at 100,000 cells/well in complete growth medium (DMEM, Cellgro #10-013-CM, 4.5 g/L glucose, 10% FBS) in the presence of 0.05 mg/mL human insulin (Hannas Pharmaceutical Supply Co Inc, Humanlin 100 U/ml, 4 mg/ml) in 96-well tissue culture plate. […] The cells were then returned to the tissue culture incubator (37° C. and 5% CO2) for 4 hrs. At the end of incubation, the cells were washed three times with 200 μL/well Hanks buffer (HBSS) and then stored at −20° C. until extraction.
For fatty acid extraction, after thawing out the plates, 40 μL of 1N KOH (containing 5 μM of internal standard 7,7,8,8-D4 palmitate) was added to each well and cell plates were incubated at 37° C. for 30 minutes. […] Acetonitrile (100 μL) was then added to extract fatty acids, followed by centrifugation at 3000 rpm for 10 minutes. 75 μL of extract was then transferred to a new glass vial in a 96-well cluster plate. 5 μL was injected for LC/MS analysis for detection of ^13C-palmitic acid and ^13C-palmitoleic acid. Formation of product ^13C-palmitoleic acid was determined as an index of SCD1 activity.
LC/MS analysis was performed as following. An Agilent 1100 Liquid Chromatographic System (Palo Alto, Calif.) consisting of a binary pump, a degasser and an autosampler was used. Separation of free fatty acids was performed on a Zorbax SB—C8 column (2.1×50 mm, particle size=3.5 μm). An isocratic elution was carried out with 10 mM triethylamine acetate in water:acetonitrile (3:7) at a flow rate of 0.3 mL/min. The column temperature was set at 30° C. and the sample injection volume was 5 μL. The LC run cycle was 4 min, A Micromass triple-quadrupole Quattro Micro mass […] (Waters, Beverly, Mass.) was interfaced with the LC system through a Z-spray electrospray ion source and was operated in the negative ion mode. Nitrogen was used as nebulizing gas, desolvation gas and cone curtain gas and argon was chosen as collision gas. The triple quadrupole MS source parameters were set as follows: capillary voltage, 3200V; cone voltage, 25V; extractor 2V, source temperature, 120° C.; desolvation temperature, 300° C.; cone gas flow, 50 L/h; and desolvation gas flow, 700 L/h. […] MassLynx software version 4.0 was used for system control and data processing. The signal of U—^13C-palmitoleic acid was normalized to an internal standard.

The target in assay [2] is SCD1 (Rattus norvegicus (Rat), UniProt P07308). In words: SCD1 enzymatic assay in rat liver microsomes (RLM). Format: biochemical. The settings on record: for inhibition at 1 µM / % Inh. @ 1 μM: 1 μM test compound. The protocol: Step 1: Preparation of Rat Liver Microsome (RLM)
Sprague Dawley rats from Charles River (200-225 g) underwent 2-cycle of fast-re-feeding (24-hour fast followed by 24-hour feeding with fat-free high carbohydrate diet, Research Diet, D00042802). The livers were removed and homogenized 1:4 (w/v) with pre-chilled, homogenizing buffer (10 mM Tris-HCl, 0.25 M sucrose, 1 mM EDTA, pH 7.4, supplemented with protease inhibitor cocktail). The homogenate was spun at 12,000×g for 15 min at 4° C. The supernatant was then re-centrifuged at 100,000×g for 60 min at 4° C. The pellet was re-suspended in 2 ml pre-chilled […] potassium phosphate buffer, pH 7.2, 10 mM EDTA at a concentration of 20 mg/ml. The resulting rat liver microsome (RLM) preparation was stored at […].
Step 2: SCD1 Enzymatic Assay in RLM:
The SCD1 enzymatic assay was done in a volume of 50 μL using 10 μg of RLM (prepared as described above) in a 96-well polypropylene plate (enzyme reaction buffer contains 0.1 M K-Phosphate Buffer, 10 mM ATP, 6 mM MgCl2, 1 mM CoA, 1 mM β-NADH, 1.6 mM L-glutathione, 20 μM Stearoyl-CoA). Stearoyl-[9,10-^3H]—CoA (ARC-0390, 1 mCi/mL, 60 Ci/mmol,) was added at a final concentration of 2 μCi/mL. Test compound was then added to the reaction mixture at the selected concentration. After incubation at room temperature for 2 hours, 5 μL 1 N HCl was added to stop the reaction, followed by addition of 25 μL of 10% charcoal. The reaction mixture was then transferred to 96-well Multiscreen plate (Millipore, Cat# MSFCN6B50). [^3H2O] was collected into Opti-plate (PE, Cat #6005290) by centrifuge, at 1,000 rpm for 2 minutes. 150 μL Microscint 40 (PE, cat #6013641) was then added to each well and counted on Topcount for [^3H] counts per minute (cpm). The measured cpm values were fitted with Sigmoidal dose-response curve fit with Graphpad Prism.
For orientation: Liver microsomes are a subcellular fraction often used to study metabolism.

Where “and” joins values, the source holds several entries; their conditions need not be identical. Equal values may be shown once.

Chain of SCD1 (Rattus norvegicus (Rat), UniProt P07308) (P07308 whole entry): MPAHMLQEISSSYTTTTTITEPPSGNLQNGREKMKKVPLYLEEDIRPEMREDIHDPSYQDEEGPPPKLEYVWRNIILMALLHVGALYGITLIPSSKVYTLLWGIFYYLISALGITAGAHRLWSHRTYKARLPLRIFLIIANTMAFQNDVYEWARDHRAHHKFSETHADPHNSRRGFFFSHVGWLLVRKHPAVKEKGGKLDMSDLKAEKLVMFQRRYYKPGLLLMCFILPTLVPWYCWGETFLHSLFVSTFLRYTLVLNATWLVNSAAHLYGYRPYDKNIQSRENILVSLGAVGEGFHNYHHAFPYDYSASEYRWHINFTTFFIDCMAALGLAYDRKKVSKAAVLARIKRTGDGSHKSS
Chain of SCD1 (Homo sapiens (Human), UniProt O00767) (O00767 whole entry): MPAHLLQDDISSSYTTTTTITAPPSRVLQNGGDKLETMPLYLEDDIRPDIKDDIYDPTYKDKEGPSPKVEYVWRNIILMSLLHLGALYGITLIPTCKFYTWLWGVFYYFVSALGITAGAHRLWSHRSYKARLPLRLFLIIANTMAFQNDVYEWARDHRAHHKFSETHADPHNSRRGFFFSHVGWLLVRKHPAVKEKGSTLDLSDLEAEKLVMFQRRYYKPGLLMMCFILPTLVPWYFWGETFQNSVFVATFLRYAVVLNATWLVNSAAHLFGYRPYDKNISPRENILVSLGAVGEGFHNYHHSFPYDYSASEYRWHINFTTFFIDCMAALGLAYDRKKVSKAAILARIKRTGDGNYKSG

One may read the IC50 as the concentration that inhibits the measured activity by half. By inhibition is commonly meant the relative decrease from the control value, in per cent. For `Cc1cnc(NC(=O)N2CCC(c3noc4ccc(F)cc34)CC2)s1` [Compound 14, 4-(5-fluorobenzo[d]isoxazol-3-yl)-N-(5-methylthiazol-2-yl)piperidine-1-carboxamide], the half-inhibitory concentration (IC50) on SCD1 [1] came to 169 nM. On SCD1 [2], the IC50 is 303 nM and the inhibition at 1 µM was determined as 86%.

Take `NC(=O)c1cnc(NC(=O)N2CCC(N3CCc4ccc(F)cc43)CC2)s1` [Compound 15, 2-(4-(6-fluoroindolin-1-yl)piperidine-1-carboxamido)thiazole-5-carboxamide]: the figures for the half-maximal inhibitory concentration (IC50) at SCD1 [1] and against SCD1 [2] were 49 nM and 22 nM, respectively. Further, the inhibition at 1 µM on SCD1 [2] is 101%.

In the case of `NC(=O)c1cccc(NC(=O)N2CCC(N3CCc4ccc(F)cc43)CC2)c1` [Compound 16, N-(3-carbamoylphenyl)-4-(6-fluoroindolin-1-yl)piperidine-1-carboxamide], the half-inhibitory concentration (IC50) on SCD1 [1] was 93 nM. On SCD1 [2], the IC50 was 20 nM and the inhibition at 1 µM turned out to be 96%.

As for `NC(=O)c1cccc(NC(=O)N2CCC(c3noc4ccc(F)cc34)CC2)c1` [Compound 17, N-(3-carbamoylphenyl)-4-(5-fluorobenzo[d]isoxazol-3-yl)piperidine-1-carboxamide], the IC50 on SCD1 [1] was 274 nM; on SCD1 [2] it was 208 nM. Also, the inhibition at 1 µM at SCD1 [2] stood at 84%.

In the case of `COC(=O)c1cnc(NC(=O)N2CCC(N3CCc4ccc(F)cc43)CC2)s1` [Compound 18, methyl 2-(4-(6-fluoroindolin-1-yl)piperidine-1-carboxamido)thiazole-5-carboxylate], the half-inhibitory concentration (IC50) on SCD1 [1] is 221 nM. In addition, on SCD1 [2], the IC50 stood at 363 nM and the inhibition at 1 µM was 62%.

As to `CNC(=O)c1cnc(NC(=O)N2CCC(N3CCc4ccc(F)cc43)CC2)s1` [Compound 19, 2-(4-(6-fluoroindolin-1-yl)piperidine-1-carboxamido)-N-methylthiazole-5-carboxamide], the IC50 at SCD1 [1] was found to be 206 nM. Also, at SCD1 [2], 93 nM corresponded to half-maximal inhibition (IC50) and the inhibition at 1 µM amounted to 94%.

Regarding `Cc1csc(NC(=O)N2CCC(N3CCc4ccc(F)cc43)CC2)n1` [Compound 20, 4-(6-fluoroindolin-1-yl)-N-(4-methylthiazol-2-yl)piperidine-1-carboxamide], at SCD1 [1], the IC50 was 21 nM. Moreover, on SCD1 [2], the half-maximal inhibitory concentration (IC50) worked out at 26 nM and the inhibition at 1 µM amounted to 98%.

In the case of `Cc1cnc(NC(=O)N2CCC(N3CCc4ccc(F)cc43)CC2)s1` [Compound 21, 4-(6-fluoroindolin-1-yl)-N-(5-methylthiazol-2-yl)piperidine-1-carboxamide], the IC50 on SCD1 [1] worked out at 108 nM. On SCD1 [2], inhibition was half-maximal at 82 nM (IC50) and the inhibition at 1 µM amounted to 83%.

As to `O=C(Nc1ncc(CO)s1)N1CCC(N2CCc3ccc(F)cc32)CC1` [Compound 24, 4-(6-fluoroindolin-1-yl)-N-(5-(hydroxymethyl)thiazol-2-yl)piperidine-1-carboxamide], the IC50 on SCD1 [1] was found to be 154 nM. For the same compound, at SCD1 [2], the midpoint of inhibition, the IC50, lay at 88 nM and the inhibition at 1 µM came out at 97%.

Take `O=C(Nc1nc(CO)cs1)N1CCC(N2CCc3ccc(F)cc32)CC1` [Compound 25, 4-(6-fluoroindolin-1-yl)-N-(4-(hydroxymethyl)thiazol-2-yl)piperidine-1-carboxamide]: the half-inhibitory concentration (IC50) on SCD1 [1] came out at 42 nM. On SCD1 [2], the half-inhibitory concentration (IC50) turned out to be 52 nM and the inhibition at 1 µM turned out to be 94%.

`CCOC(=O)Cc1csc(NC(=O)N2CCC(N3CCc4ccc(F)cc43)CC2)n1` [Compound 27, ethyl 2-(2-(4-(6-fluoroindolin-1-yl)piperidine-1-carboxamido)thiazol-4-yl)acetate]: the half-maximal inhibitory concentration (IC50) on SCD1 [1] is above 1000 nM. Further, at SCD1 [2], the IC50 amounted to 290 nM and the inhibition at 1 µM was found to be 80%.

With `O=C(Nc1nc(CCO)cs1)N1CCC(N2CCc3ccc(F)cc32)CC1` [Compound 29, 4-(6-fluoroindolin-1-yl)-N-(4-(2-hydroxyethyl)thiazol-2-yl)piperidine-1-carboxamide], the values for the IC50 at SCD1 [1] and against SCD1 [2] were 18 nM and 20 nM, respectively. Further, at SCD1 [2], the inhibition at 1 µM came out at 94%.

`O=C(Nc1nc2c(s1)CC(O)CC2)N1CCC(N2CCc3ccc(F)cc32)CC1` (stereo not shown) [Compound 33, 4-(6-fluoroindolin-1-yl)-N-(6-hydroxy-4,5,6,7-tetrahydrobenzo[d]thiazol-2-yl)piperidine-1-carboxamide]: the IC50 on SCD1 [1] is < 1 nM and 1 nM. Further, on SCD1 [2], the IC50 was 7 nM and 20 nM; the “% Inh. @ 1 μM” value was found to be 99%; the inhibition at 1 µM was determined as 97%.

Regarding `O=C(CO)N1CCc2nc(NC(=O)N3CCC(N4CCc5ccc(F)cc54)CC3)sc2C1` [Compound 35, 4-(6-fluoroindolin-1-yl)-N-(5-(2-hydroxyacetyl)-4,5,6,7-tetrahydrothiazolo[5,4-c]pyridin-2-yl)piperidine-1-carboxamide], the concentration for half-maximal inhibition (IC50) was 113 nM on SCD1 [1] and 96 nM on SCD1 [2]. Further, the inhibition at 1 µM at SCD1 [2] is 92%.

For `O=C(Nc1nc2c(s1)CNCC2)N1CCC(N2CCc3ccc(F)cc32)CC1` [Compound 36, 4-(6-fluoroindolin-1-yl)-N-(4,5,6,7-tetrahydrothiazolo[5,4-c]pyridin-2-yl)piperidine-1-carboxamide], the 50% inhibitory concentration (IC50) at SCD1 [1] stood at 16 nM. Further, on SCD1 [2], the IC50 was 29 nM and the inhibition at 1 µM was 91%.

Turning to `O=C1NCCn2nc(NC(=O)N3CCC(N4CCc5ccc(F)cc54)CC3)cc21` [Compound 37, 4-(6-fluoroindolin-1-yl)-N-(4-oxo-4,5,6,7-tetrahydropyrazolo[1,5-a]pyrazin-2-yl)piperidine-1-carboxamide], the IC50 on SCD1 [1] came to 30 nM. At SCD1 [2], the IC50 was 14 nM and 22 nM; the “% Inh. @ 1 μM” value stood at 89%; the inhibition at 1 µM came out at 95%.

Regarding `O=C(Nc1nc2c(s1)CN(CCO)CC2)N1CCC(N2CCc3ccc(F)cc32)CC1` [Compound 38, 4-(6-fluoroindolin-1-yl)-N-(5-(2-hydroxyethyl)-4,5,6,7-tetrahydrothiazolo[5,4-c]pyridin-2-yl)piperidine-1-carboxamide], the IC50 on SCD1 [1] was determined as 440 nM; on SCD1 [2] it was 770 nM.

As for `NC(=O)c1cccc(NC(=O)N2CCC(n3ncc4c(F)cccc43)CC2)c1` [Compound 39, N-(3-carbamoylphenyl)-4-(4-fluoro-1H-indazol-1-yl)piperidine-1-carboxamide], the 50% inhibitory concentration (IC50) at SCD1 [1] was 288 nM and 149 nM. Besides, at SCD1 [2], the half-maximal inhibitory concentration (IC50) is 88 nM and 59 nM; the “% Inh. @ 1 μM” value was 86, 86%; the inhibition at 1 µM was found to be 86%.

For `O=C(Nc1cccc(CO)c1)N1CCC(N2CCc3ccc(F)cc32)CC1` [Compound 43, 4-(6-fluoroindolin-1-yl)-N-(3-(hydroxymethyl)phenyl)piperidine-1-carboxamide], the 50% inhibitory concentration (IC50) on SCD1 [1] was 161 nM. Further, on SCD1 [2], it took 322 nM to reach half-maximal inhibition (IC50) and the inhibition at 1 µM was found to be 61%.

As to `CNC(=O)c1cccc(NC(=O)N2CCC(c3c[nH]c4ccccc34)CC2)c1` [Compound 64, 4-(1H-indol-3-yl)-N-(3-(methylcarbamoyl)phenyl)piperidine-1-carboxamide], at SCD1 [2], the inhibition at 1 µM came to 15%.

With `Cc1csc(NC(=O)N2CCC(c3c[nH]c4ccccc34)CC2)n1` [Compound 65, 4-(1H-indol-3-yl)-N-(4-methylthiazol-2-yl)piperidine-1-carboxamide], on SCD1 [2], the inhibition at 1 µM amounted to 2%.
